Assay results from patent US20020137929A1, “1 - (3-heterocyclylphenyl) isothiourea, -isourea, -guanidine and -amidine herbicidal agents” (Intellectual Property Department, BASF Aktiengesellschaft, priority 1998, published 2002).

Assays:
AMBEL (Ragweed, Common) = experiment: Postemergence herbicidal evaluation; format: in vivo, Ambrosia artemisifolia; conditions: postemergence
How it was run: (§1)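 ~2-wk seedlings; postemergence spray, 40 psi; vehicle 1:1 acetone:water + 0.5% Tween 20; rate ≈0.0156–0.500 kg/ha; greenhouse hold; scored 4–5 wk after treatment, 0–9 scale vs control; repeat tests averaged.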

CASOB (Sicklepod) [1] = experiment: Postemergence herbicidal evaluation; format: in vivo, Cassia obtusifolia; conditions: postemergence
How it was run: as §1

GALAP (Galium) = experiment: Postemergence herbicidal evaluation; format: in vivo, Galium aparine; conditions: postemergence
How it was run: as §1

[2] = system: IPOHE (Morningglory, Ivyleaf); experiment: Postemergence herbicidal evaluation; format: in vivo, Ipomoea hederacea; conditions: postemergence
How it was run: as §1

ABUTH (Velvetleaf) = experiment: Preemergence herbicidal evaluation; format: in vivo, Abutilon theophrasti; conditions: rated 4-5 weeks after treatment, rating scale 0-9
How it was run: (§2)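 Herbicidal effect scored visually, 0-9, at 4 to 5 weeks against a control; compound applied preemergence by aqueous acetone spray to seeded soil at about 0.0156 to 0.500 kg/ha.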

CASOB (Sicklepod) [3] = experiment: Preemergence herbicidal evaluation; format: in vivo, Cassia obtusifolia; conditions: rated 4-5 weeks after treatment, rating scale 0-9
How it was run: as §2

[4] = system: IPOHE (Morningglory, Ivyleaf); experiment: Preemergence herbicidal evaluation; format: in vivo, Ipomoea hederacea; conditions: rated 4-5 weeks after treatment, rating scale 0-9
How it was run: as §2

ECHCG (Barnyardgrass) = experiment: Preemergence herbicidal evaluation; format: in vivo, Echinochloa crus-galli; conditions: rated 4-5 weeks after treatment, rating scale 0-9
How it was run: as §2

[5] = system: GLXMAW (Soybean, Williams); experiment: Preemergence herbicidal evaluation; format: in vivo, Glycine max, (L.) Merr. cv Williams; conditions: rated 4-5 weeks after treatment, rating scale 0-9
How it was run: as §2

[6] = system: TRZAWR (Wheat, Winter, cv Riband); experiment: Preemergence herbicidal evaluation; format: in vivo, Triticum aestivum; conditions: rated 4-5 weeks after treatment, rating scale 0-9
How it was run: as §2

ZEAMX (Corn, Field) = experiment: Preemergence herbicidal evaluation; format: in vivo, Zea mays; conditions: rated 4-5 weeks after treatment, rating scale 0-9
How it was run: as §2

MOOVA (Monochoria) = experiment: Preemergence weed control under flooded paddy conditions; format: in vivo, Monochoria vaginalis; conditions: rated 3-4 weeks after treatment
How it was run: (§3)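 Herbicidal effect is scored visually on a 0-9 scale against an untreated control, three to four weeks after compounds are pipetted into the flood water (1.5 to 3 cm deep) over seeds planted in silt loam at 0.5 cm depth. Rates: about 0.0313 to 0.500 kg/ha.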

[7] = system: SAGPY (Arrowhead (Pygmaea)); experiment: as above; format: in vivo, Sagittaria pygmaea; conditions: rated 3-4 weeks after treatment
How it was run: as §3

With `Cn1c(C(F)(F)F)cc(=O)n(-c2cc(N=C3SCC(=O)N3Cc3cccnc3)c(Cl)cc2F)c1=O` [Compound 132, 3-{4-Chloro-2-fluoro-5-{[4-oxo-3-(3-pyridylmethyl)-2-thiazolidinylidene]amino}phenyl}-1-methyl-6-(trifluoromethyl)-2,4 (1H,3H)-pyrimidinedione] the “Herbicidal rating AMBEL” value (AMBEL (Ragweed, Common); rate 0.0156 kg/ha) was 5.0, the “Herbicidal rating AMBEL” value (AMBEL (Ragweed, Common); rate 0.0313 kg/ha) was 9.0 and the “Herbicidal rating AMBEL” value (AMBEL (Ragweed, Common); rate 0.0625 kg/ha) was 9.0. For the same compound, the “Herbicidal rating CASOB” value (CASOB (Sicklepod) [1]; rate 0.0156 kg/ha) was 1.0, the “Herbicidal rating CASOB” value (CASOB (Sicklepod) [1]; rate 0.0313 kg/ha) was 1.0 and the “Herbicidal rating CASOB” value (CASOB (Sicklepod) [1]; rate 0.0625 kg/ha) was 6.0. For the same compound, the “Herbicidal rating GALAP” value (GALAP (Galium); rate 0.0156 kg/ha) was 2.0, the “Herbicidal rating GALAP” value (GALAP (Galium); rate 0.0313 kg/ha) was 2.0 and the “Herbicidal rating GALAP” value (GALAP (Galium); rate 0.0625 kg/ha) was 3.0. For the same compound, the “Herbicidal rating IPOHE” value ([2]; rate 0.0156 kg/ha) was 6.0, the “Herbicidal rating IPOHE” value ([2]; rate 0.0313 kg/ha) was 9.0 and the “Herbicidal rating IPOHE” value ([2]; rate 0.0625 kg/ha) was 9.0. The “Preemergence herbicidal rating ABUTH” value (ABUTH (Velvetleaf); rate 0.0625 kg/ha) was 9.0, the “Preemergence herbicidal rating ABUTH” value (ABUTH (Velvetleaf); rate 0.1250 kg/ha) was 9.0 and the “Preemergence herbicidal rating ABUTH” value (ABUTH (Velvetleaf); rate 0.2500 kg/ha) was 9.0. The “Preemergence herbicidal rating CASOB” value (CASOB (Sicklepod) [3]; rate 0.0625 kg/ha) was 0.0, the “Preemergence herbicidal rating CASOB” value (CASOB (Sicklepod) [3]; rate 0.2500 kg/ha) was 0.0 and the “Preemergence herbicidal rating IPOHE” value ([4]; rate 0.0625 kg/ha) was 0.0. The “Preemergence herbicidal rating IPOHE” value ([4]; rate 0.1250 kg/ha) was 0.0, the “Preemergence herbicidal rating IPOHE” value ([4]; rate 0.2500 kg/ha) was 2.0 and the “Preemergence herbicidal rating ECHCG” value (ECHCG (Barnyardgrass); rate 0.0625 kg/ha) was 0.0. For the same compound, the “Preemergence herbicidal rating ECHCG” value (ECHCG (Barnyardgrass); rate 0.1250 kg/ha) was 0.0, the “Preemergence herbicidal rating ECHCG” value (ECHCG (Barnyardgrass); rate 0.2500 kg/ha) was 7.0 and the “Preemergence herbicidal rating GLXMAW” value ([5]; rate 0.0625 kg/ha) was 0.0. The “Preemergence herbicidal rating GLXMAW” value ([5]; rate 0.1250 kg/ha) was 0.0, the “Preemergence herbicidal rating GLXMAW” value ([5]; rate 0.2500 kg/ha) was 2.0 and the “Preemergence herbicidal rating TRZAWR” value ([6]; rate 0.0625 kg/ha) was 0.0. The “Preemergence herbicidal rating TRZAWR” value ([6]; rate 0.1250 kg/ha) was 0.0, the “Preemergence herbicidal rating TRZAWR” value ([6]; rate 0.2500 kg/ha) was 1.0 and the “Preemergence herbicidal rating ZEAMX” value (ZEAMX (Corn, Field); rate 0.0625 kg/ha) was 0.0. For the same compound, the “Preemergence herbicidal rating ZEAMX” value (ZEAMX (Corn, Field); rate 0.1250 kg/ha) was 0.0, the “Preemergence herbicidal rating ZEAMX” value (ZEAMX (Corn, Field); rate 0.2500 kg/ha) was 2.0 and the “herbicidal effect rating, MOOVA” value (MOOVA (Monochoria); 0.0313 kg/ha) was 6.0. The “herbicidal effect rating, MOOVA” value (MOOVA (Monochoria); 0.0625 kg/ha) was 9.0, the “herbicidal effect rating, MOOVA” value (MOOVA (Monochoria); 0.1250 kg/ha) was 9.0 and the “herbicidal effect rating, MOOVA” value (MOOVA (Monochoria); 0.2500 kg/ha) was 9.0. The “herbicidal effect rating, SAGPY” value ([7]; 0.0313 kg/ha) was 0.0, the “herbicidal effect rating, SAGPY” value ([7]; 0.0625 kg/ha) was 0.0 and the “herbicidal effect rating, SAGPY” value ([7]; 0.1250 kg/ha) was 0.0. For the same compound, the “herbicidal effect rating, SAGPY” value ([7]; 0.2500 kg/ha) was 0.0.
In the case of `Cc1cc(C)cc(CN2C(=O)CSC2=Nc2cc(-n3c(=O)cc(C(F)(F)F)n(C)c3=O)c(F)cc2Cl)c1` [Compound 146, 3-{4-Chloro-5-{[3-(3,5-dimethylbenzyl)-4-oxo-2-thiazolidinylidene]amino}-2-fluorophenyl}-1-methyl-6-(trifluoromethyl)-2,4(1H,3H)-pyrimidinedione], the “Herbicidal rating AMBEL” value (AMBEL (Ragweed, Common); rate 0.0156 kg/ha) is reported as 9.0, the “Herbicidal rating AMBEL” value (AMBEL (Ragweed, Common); rate 0.0313 kg/ha) is reported as 9.0 and the “Herbicidal rating AMBEL” value (AMBEL (Ragweed, Common); rate 0.0625 kg/ha) is reported as 9.0. For the same compound, the “Herbicidal rating CASOB” value (CASOB (Sicklepod) [1]; rate 0.0156 kg/ha) was 1.0, the “Herbicidal rating CASOB” value (CASOB (Sicklepod) [1]; rate 0.0313 kg/ha) was 2.0 and the “Herbicidal rating CASOB” value (CASOB (Sicklepod) [1]; rate 0.0625 kg/ha) was 4.0. For the same compound, the “Herbicidal rating GALAP” value (GALAP (Galium); rate 0.0156 kg/ha) was 2.0, the “Herbicidal rating GALAP” value (GALAP (Galium); rate 0.0313 kg/ha) was 2.0 and the “Herbicidal rating GALAP” value (GALAP (Galium); rate 0.0625 kg/ha) was 4.0. The “Herbicidal rating IPOHE” value ([2]; rate 0.0156 kg/ha) was 9.0, the “Herbicidal rating IPOHE” value ([2]; rate 0.0313 kg/ha) was 9.0 and the “Herbicidal rating IPOHE” value ([2]; rate 0.0625 kg/ha) was 9.0. The “Preemergence herbicidal rating ABUTH” value (ABUTH (Velvetleaf); rate 0.0156 kg/ha) was 0.0, the “Preemergence herbicidal rating ABUTH” value (ABUTH (Velvetleaf); rate 0.0625 kg/ha) was 1.0 and the “Preemergence herbicidal rating ABUTH” value (ABUTH (Velvetleaf); rate 0.1250 kg/ha) was 9.0. For the same compound, the “Preemergence herbicidal rating ABUTH” value (ABUTH (Velvetleaf); rate 0.2500 kg/ha) was 9.0, the “Preemergence herbicidal rating CASOB” value (CASOB (Sicklepod) [3]; rate 0.0156 kg/ha) was 0.0 and the “Preemergence herbicidal rating CASOB” value (CASOB (Sicklepod) [3]; rate 0.0313 kg/ha) was 0.0. The “Preemergence herbicidal rating CASOB” value (CASOB (Sicklepod) [3]; rate 0.0625 kg/ha) was 0.0, the “Preemergence herbicidal rating CASOB” value (CASOB (Sicklepod) [3]; rate 0.1250 kg/ha) was 1.0 and the “Preemergence herbicidal rating CASOB” value (CASOB (Sicklepod) [3]; rate 0.2500 kg/ha) was 1.0. The “Preemergence herbicidal rating IPOHE” value ([4]; rate 0.0156 kg/ha) was 0.0, the “Preemergence herbicidal rating IPOHE” value ([4]; rate 0.0313 kg/ha) was 0.0 and the “Preemergence herbicidal rating IPOHE” value ([4]; rate 0.0625 kg/ha) was 0.0. The “Preemergence herbicidal rating IPOHE” value ([4]; rate 0.1250 kg/ha) was 0.0, the “Preemergence herbicidal rating IPOHE” value ([4]; rate 0.2500 kg/ha) was 0.0 and the “Preemergence herbicidal rating ECHCG” value (ECHCG (Barnyardgrass); rate 0.0156 kg/ha) was 0.0. The “Preemergence herbicidal rating ECHCG” value (ECHCG (Barnyardgrass); rate 0.0313 kg/ha) was 0.0, the “Preemergence herbicidal rating ECHCG” value (ECHCG (Barnyardgrass); rate 0.0625 kg/ha) was 0.0 and the “Preemergence herbicidal rating ECHCG” value (ECHCG (Barnyardgrass); rate 0.1250 kg/ha) was 0.0. For the same compound, the “Preemergence herbicidal rating ECHCG” value (ECHCG (Barnyardgrass); rate 0.2500 kg/ha) was 0.0, the “Preemergence herbicidal rating GLXMAW” value ([5]; rate 0.0156 kg/ha) was 0.0 and the “Preemergence herbicidal rating GLXMAW” value ([5]; rate 0.0313 kg/ha) was 0.0. For the same compound, the “Preemergence herbicidal rating GLXMAW” value ([5]; rate 0.0625 kg/ha) was 0.0, the “Preemergence herbicidal rating GLXMAW” value ([5]; rate 0.1250 kg/ha) was 0.0 and the “Preemergence herbicidal rating GLXMAW” value ([5]; rate 0.2500 kg/ha) was 1.0. The “Preemergence herbicidal rating TRZAWR” value ([6]; rate 0.0156 kg/ha) was 0.0, the “Preemergence herbicidal rating TRZAWR” value ([6]; rate 0.0313 kg/ha) was 0.0 and the “Preemergence herbicidal rating TRZAWR” value ([6]; rate 0.0625 kg/ha) was 0.0. The “Preemergence herbicidal rating TRZAWR” value ([6]; rate 0.1250 kg/ha) was 0.0, the “Preemergence herbicidal rating TRZAWR” value ([6]; rate 0.2500 kg/ha) was 1.0 and the “Preemergence herbicidal rating ZEAMX” value (ZEAMX (Corn, Field); rate 0.0156 kg/ha) was 0.0. For the same compound, the “Preemergence herbicidal rating ZEAMX” value (ZEAMX (Corn, Field); rate 0.0313 kg/ha) was 0.0, the “Preemergence herbicidal rating ZEAMX” value (ZEAMX (Corn, Field); rate 0.0625 kg/ha) was 0.0 and the “Preemergence herbicidal rating ZEAMX” value (ZEAMX (Corn, Field); rate 0.1250 kg/ha) was 0.0. The “Preemergence herbicidal rating ZEAMX” value (ZEAMX (Corn, Field); rate 0.2500 kg/ha) was 0.0, the “herbicidal effect rating, MOOVA” value (MOOVA (Monochoria); 0.0313 kg/ha) was 4.0 and the “herbicidal effect rating, MOOVA” value (MOOVA (Monochoria); 0.0625 kg/ha) was 6.0. The “herbicidal effect rating, MOOVA” value (MOOVA (Monochoria); 0.1250 kg/ha) was 6.0, the “herbicidal effect rating, MOOVA” value (MOOVA (Monochoria); 0.2500 kg/ha) was 9.0 and the “herbicidal effect rating, SAGPY” value ([7]; 0.0313 kg/ha) was 0.0. For the same compound, the “herbicidal effect rating, SAGPY” value ([7]; 0.0625 kg/ha) was 0.0, the “herbicidal effect rating, SAGPY” value ([7]; 0.1250 kg/ha) was 3.0 and the “herbicidal effect rating, SAGPY” value ([7]; 0.2500 kg/ha) was 4.0.
